Where a SMILES comes first, the peptide text is derived from it. Bridges are numbered along the chain shown (N, C = ends). Where no end group is shown, it is not given here. [ ]: non-standard residue; d: D form. S5 = C=CCCC[C@](C)(N)C(=O)O; Nle = CCCC[C@H](N)C(=O)O
How the values were obtained:
Stability in mouse serum = assay type: in vitro ADME; conditions: 11.1 μM peptide, fresh nonsterile mouse serum (200 μl serum + 25 μl peptide solution, pH 7.5 buffer with 10% DMSO), 37 °C, quench 15% TCA in acetonitrile, HPLC, n = 3; read-out: Half-life (hours), mouse serum (converted)
Experimental: Figure 4. Biophysical analysis of stapled peptides. A, amino acid sequence alignment of the targeted TM regions and disrupting peptides. Cys residues are in the reduced state. Blue bridges indicate the stapled amino acid residues. […] Yields, purity, and MALDI-TOF data are shown for the stapled peptides and negative control. B, CD analysis of 30–50 μM peptides at 20 °C. For proteolytic stability studies, the peptide solution (55.5 μM for trypsin and chymotrypsin and 11.1 μM for serum) was incubated in the presence of 0.55 μg/ml trypsin from porcine pancreas (E), α-chymotrypsin (F), or mouse serum (G) at 37 °C for the indicated times (indicated on the x axis). Data are mean ± S.E. (error bars) (n = 3) percentage of intact peptide normalized to t = 0. Proteolytic half-lives and putative cleavage sites (predicted using the Expasy bioinformatics server's model with a 50% probability of cleavage) are indicated at the bottom of each panel. Positive correlation between helicity and half-life in trypsin/chymotrypsin (C) or serum (D) was determined by two-tailed Pearson's correlation test. TEXT PRINTED IN THE PICTURE: (B) TM7-TAT: Ellipticity (%): 3.4 | (B) TM6-TAT: Ellipticity (%): 18.3 | (B) TM5-TAT: Ellipticity (%): 20.9 | (B) 8: Ellipticity (%): 58.3 | (B) 9: Ellipticity (%): 46.4 | (B) 10: Ellipticity (%): 36.8 | (B) 11: Ellipticity (%): 46 | (E) TM7-TAT: Half-life (min): 21; #Cleavage sites: 8 | (E) TM6-TAT: Half-life (min): 40; #Cleavage sites: 7 | (E) TM5-TAT: Half-life (min): 33; #Cleavage sites: 8 | (E) 8: Half-life (min): 307; #Cleavage sites: 0 | (E) 9: Half-life (min): 178; #Cleavage sites: 0 | (E) 10: Half-life (min): 75; #Cleavage sites: 6 | (E) 11: Half-life (min): 84; #Cleavage sites: 0 | (F) TM7-TAT: Half-life (min): 22; #Cleavage sites: 6 | (F) TM6-TAT: Half-life (min): 32; #Cleavage sites: 7 | (F) TM5-TAT: Half-life (min): 28; #Cleavage sites: 7 | (F) 8: Half-life (min): 425; #Cleavage sites: 4 | (F) 9: Half-life (min): 198; #Cleavage sites: 3 | (F) 10: Half-life (min): 63; #Cleavage sites: 2 | (F) 11: Half-life (min): 79; #Cleavage sites: 4 | (G) TM7-TAT: Half-life (hours): 0.46 | (G) TM6-TAT: Half-life (hours): 0.55 | (G) TM5-TAT: Half-life (hours): 0.81 | (G) 8: Half-life (hours): ≥18 | (G) 9: Half-life (hours): 14.7 | (G) 10: Half-life (hours): 11.7 | (G) 11: Half-life (hours): 5.3 DOUBTS OF THE COPYIST ABOUT THIS PICTURE: Panel A table (Yield, Rt, Purity, [M+H+] calc., [M+H+] Peak Found for 7-11) left out as synthesis and mass-spectrum characterisation data; uncertain whether [M+H+] calc. should count as a molecular weight
Dose–response curves were fitted using a four-parameter logistic nonlinear regression mode. Peptide stability data were fitted using a nonlinear regression mode for dissociation kinetics. All statistical tests, curve fitting, and graphing were performed using GraphPad Prism 8 (GraphPad Software, La Jolla, CA).
To 200 μl of fresh nonsterile mouse serum was added 25 μl of peptide solution (100 μM, dissolved in ammonium bicarbonate buffer, pH 7.5, containing 10% DMSO), and the mixture was incubated at 37 °C. At the specified time, an aliquot of incubation mixture was withdrawn and quenched by the addition of an equal volume of 15% TCA in acetonitrile to precipitate out serum proteins over ice for 30 min. The mixture was then centrifuged at 13,500 rpm for 10 min, and the supernatant was collected and analyzed by HPLC in a similar manner as described previously. The experiment was repeated twice on different days.

5-HT2AR–CB1R heteromers = tested on: 5-HT2AR–CB1R heteromers; set-up: method as in 2 sources, ref 16 = [16]; PMID 26158621; doi:10.1371/journal.pbio.1002194; 16. Viñals X. , Moreno E. , Lanfumey L. , Cordomí A. , Pastor A. , de La Torre R. , Gasperini P. , Navarro G. , Howell L. A. , Pardo L. , Lluís C. , Canela E. I. , McCormick P. J. , Maldonado R. , and ||| ref 4, unpublished observations; conditions: synthetic TM-mimicking peptides fused to HIV-TAT; cited from earlier work

Compound | half-life at 11.1 μM (Stability in mouse serum) | disruption of 5-HT2AR–CB1R heteromers (previous studies) (5-HT2AR–CB1R heteromers)
CCCC[C@H](NC(=O)[C@]1(C)CCC/C=C\CCC[C@](C)(NC(=O)[C@H](Cc2ccccc2)NC(=O)[C@H](CC(C)C)NC(=O)[C@H](CC(C)C)NC(=O)[C@H](CC(C)C)NC(=O)[C@@H](N)C(C)C)C(=O)N[C@@H](C(C)C)C(=O)N[C@@H](Cc2ccc(O)cc2)C(=O)N[C@@H](C)C(=O)N1)C(=O)N[C@@H](Cc1ccc(O)cc1)C(=O)N[C@H](C(=O)N[C@@H](CC(C)C)C(=O)N[C@@H](Cc1c[nH]c2ccccc12)C(N)=O)[C@@H](C)CC [Peptide 8] (H-VLLLF[S5]VYA[S5][Nle]YILW-NH2; staple (Z) 6-10) | ≥ 18 h | –
ETYLMFWIGVTSVLLLFIVYAYMYILWGRKKRRQRRR [TM5-TAT, reference compound] | 0.81 h | selectively disrupted
GRKKRRQRRRKTLVLILVVLIICWGPLLAIMVY [TM6-TAT, reference compound] | 0.55 h | selectively disrupted

Reference: PMC6851324, “Design and development of stapled transmembrane peptides that disrupt the activity of G-protein–coupled receptor oligomers” (The Journal of Biological Chemistry, 2019)
